The values that follow come from patent publication US20240425464A1, “Substituted Monohydrazides as Potent Antifungal Agents” (University of Kentucky Research Foundation, priority 2023, published 2024).

Common to all, as to type: cell-based, Candida albicans
The subject of test [1] is C. albicans ATCC 10231 (strain A). As to the kind of experiment: MIC determination by in vitro antifungal assay (CLSI broth dilution). The note with it: strain A = C. albicans ATCC 10231, no visible growth, 48 h at 35° C. The protocol: (§1) 10 mg/mL stock solutions of compounds 1a-9j were prepared in dimethyl sulfoxide (DMSO) and were stored at −20° C. in the dark. The antifungal agent amphotericin B (AmB) was purchased from VWR (Radnor PA, USA). AmB was dissolved in DMSO at a final concentration of 5 mg/mL and was stored at −20° C., protected from light. Candida albicans American Type Culture Collection (ATCC) 10231 (strain A), C. albicans ATCC 64124 (B), and C. albicans ATCC MYA-2876 (C) were obtained from Utah State University. C. albicans ATCC 90819 (D), C. albicans ATCC MYA-2310 (E), C. albicans ATCC MYA-1237 (F), C. albicans ATCC MYA-1003 (G), Candida glabrata ATCC 2001 (H), Candida krusei ATCC 6258 (I), Candida parapsilosis ATCC 22019 (J), Cryptococcus neoformans ATCC MYA-895 (M), Aspergillus terreus ATCC MYA-3633 (N), and Aspergillus flavus ATCC MYA-3631 (0) were obtained from the American Type Culture Collection (ATCC; Manassas, VA, USA). Aspergillus nidulans ATCC 38163 (P) was obtained from University of Kentucky. Clinically derived Aspergillus fumigatus NRRL 163 (Q), A. fumigatus NRRL 5109 (R), and A. fumigatus NRRL 6113 (S) were obtained from Northern Regional Research Laboratory (NRRL). Candida auris 384 (K), C. auris 390 (L), and fungal strains 381-400 (including 10 C. auris (AR Bank #381-390), 3 Candida duobushaemulonii (AR Bank #391, AR Bank #392, and AR Bank #394), 2 Candida haemulonii (AR Bank #393 and AR Bank #395), 1 Kodameae ohmeri (AR Bank #396), 1 C. krusei (AR Bank #397), 1 Candida lusitaniae (AR Bank #398), and 2 Saccharomyces cerevisiae strains (AR Bank #399 and AR Bank #400)) were part of a larger fungal library from the AR Bank maintained by the Centers for Disease Control and Prevention (CDC; Atlanta, GA, USA). Filamentous fungi and yeasts were cultivated at 35° C. in RPMI 1640 medium (with L-glutamine, without sodium bicarbonate, Sigma-Aldrich, St. Louis, MO) buffered to a pH of 7.0 with 0.165 M morpholinepropanesulfonic acid (MOPS) buffer (Sigma-Aldrich). For cytotoxicity assays, HepG2 and the mouse macrophage cell line J774A.1 were obtained from University of Kentucky. The human embryonic kidney cell line, HEK-293, was bought from the ATCC. Mammalian cells were grown in Dulbecco's Modified Eagle's Medium (DMEM) (from VWR) with 10% fetal bovine serum (FBS) (from VWR) and 1% Pen/Strep (from ATCC). Cell lines were cultured at 37° C. with 5% CO2 and passaged by trypsinization with 0.05% trypsin: 0.53 mM EDTA (from Sigma-Aldrich).
(§2) The MIC values of compounds 1a-9j against yeast cells (strains A-P and 381-400) were determined in 96-well plates as described in the CLSI documents M27-A3 and M38-A2 with minor modifications.^2 A single colony of freshly prepared yeast cells was used to inoculate 5 mL of yeast extract peptone dextrose (YPD) broth prior to incubation overnight with shaking at 200 rpm at 35° C. From the actively growing yeast culture, 100 µL were then transferred to 900 μL of RPMI 1640 medium and re-adjusted to achieve OD600 of 0.12 (˜1×10^6 CFU/mL). The cell suspension was further diluted to achieve 1:100 in RPMI 1640 medium. 100 μL of cells were added to the wells of a 96-well microtiter plates that contained 100 µL of the compound solution to obtain concentrations of 0.06-31.3 μg/mL of compounds 1a-9j or AmB prior to incubation for 48 h at 35° C. […]
On the technique in general: Dilution methods test growth across graded concentrations, often in twofold steps.

The test system of test [2] is C. albicans ATCC MYA-1237 (F). As to the kind of experiment: MIC determination by in vitro antifungal assay. The note with it: strain F = C. albicans ATCC MYA-1237(R). The method, then:
as §1, §2

Test [3] concerns C. albicans ATCC 90819 (D). As to the kind of experiment: MIC determination by in vitro antifungal assay. The method, then: as §1, §2
Test [4] concerns C. albicans ATCC MYA-2310 (E). The test is described as follows: MIC determination by in vitro antifungal assay. The note with it: strain E = C. albicans ATCC MYA-2310. The protocol: as §1, §2
In test [5] the test system is C. albicans ATCC MYA-2876 (C). As to the kind of experiment: MIC determination by in vitro antifungal assay. The note with it: strain C = C. albicans ATCC MYA-2876(S). The method, then:
as §1, §2

In test [6] the test system is C. albicans ATCC 64124 (B). The test is described as follows: MIC determination by in vitro antifungal assay. The method, then: as §1, §2
For test [7], the system named is C. albicans ATCC MYA-1003 (G). The test is described as follows: MIC determination by in vitro antifungal assay. The note with it: strain G = C. albicans ATCC MYA-1063(R) (footnote), MYA-1003 in text. The protocol: as §1, §2
Setting [8] is: strain D = C. albicans ATCC 90819(R).
Where [9] appears, read: strain B = C. albicans ATCC 64124.
The mark [10] stands for this setting: Candida albicans, ATCC10231, 48 h, read-out: MIC.
[11] abbreviates: Candida albicans, read-out: MIC.
The mark [12] stands for this setting: Candida albicans, ATCC90819, strain D = C. albicans ATCC 90819(R), read-out: MIC.
[13] abbreviates: Candida albicans, ATCC64124, strain B = C. albicans ATCC 64124, read-out: MIC.

Converted amounts (≈) assume the structure as drawn. Like-named read-outs stand apart in the source and are kept apart here.

Consider `O=C(NNc1cccc(F)c1)c1ccc(F)cn1` [Compound 3a], for which the MIC in test [1] worked out at 0.49 μg/mL^−1; in test [2], 3.9 μg/mL^−1; in test [3] (setting [8]) it was 3.9 μg/mL^−1; in test [4], 3.9 μg/mL^−1; in test [5], 3.9 μg/mL^−1; in test [6] (setting [9]) it was 0.49 μg/mL^−1. In test [7], the MIC was determined as 1.95 μg/mL^−1.

For `COc1cccc(NNC(=O)c2cnccn2)c1` [Compound 9c], the MIC was found to be 0.49 µg/mL (≈ 2.01 µM) in test [1] (setting [10]); 1.95 µg/mL (≈ 7.98 µM) in test [2] (setting [11]); 1.95 µg/mL (≈ 7.98 µM) in test [3] (setting [12]); 1.95 µg/mL (≈ 7.98 µM) in test [4] (setting [11]); 1.95 µg/mL (≈ 7.98 µM) in test [5] (setting [11]); 0.98 µg/mL (≈ 4.01 µM) in test [6] (setting [13]). Further, in test [7] (setting [11]), the MIC worked out at 0.98 µg/mL (≈ 4.01 µM).

As for `COc1cccc(NNC(=O)c2nc(F)ccc2F)c1` [Compound 8c], the MIC was 0.98 µg/mL (≈ 3.51 µM) in test [1] (setting [10]); 1.95 µg/mL (≈ 6.98 µM) in test [2] (setting [11]); 7.8 µg/mL (≈ 27.9 µM) in test [3] (setting [12]); 3.9 µg/mL (≈ 14 µM) in test [4] (setting [11]); 3.9 µg/mL (≈ 14 µM) in test [5] (setting [11]); 1.95 µg/mL (≈ 6.98 µM) in test [6] (setting [13]). Besides, the MIC in test [7] (setting [11]) was 1.95 µg/mL (≈ 6.98 µM).

Take `O=C(NNc1cc(F)cc(F)c1)c1cnccn1` [Compound 9i]: the MIC was determined as 0.24 µg/mL (≈ 0.959 µM) in test [1] (setting [10]); 1.95 µg/mL (≈ 7.79 µM) in test [2] (setting [11]); 3.9 µg/mL (≈ 15.6 µM) in test [3] (setting [12]); 15.6 µg/mL (≈ 62.3 µM) in test [4] (setting [11]); 7.8 µg/mL (≈ 31.2 µM) in test [5] (setting [11]); 3.9 µg/mL (≈ 15.6 µM) in test [6] (setting [13]). Also, in test [7] (setting [11]), the MIC came out at 1.95 µg/mL (≈ 7.79 µM).

Consider `O=C(NNc1ccc(F)cc1F)c1cccc(F)n1` [Compound 5g], for which the MIC was 0.98 µg/mL (≈ 3.67 µM) in test [1] (setting [10]); 1.95 µg/mL (≈ 7.3 µM) in test [2] (setting [11]); 3.9 µg/mL (≈ 14.6 µM) in test [3] (setting [12]); 1.95 µg/mL (≈ 7.3 µM) in test [4] (setting [11]); 1.95 µg/mL (≈ 7.3 µM) in test [5] (setting [11]); 1.95 µg/mL (≈ 7.3 µM) in test [6] (setting [13]). The MIC in test [7] (setting [11]) is 0.98 µg/mL (≈ 3.67 µM).

`O=C(NNc1cccc(F)c1)c1cccc(F)n1` [Compound 5a]: the MIC worked out at 0.49 μg/mL^−1 in test [1]; 1.95 μg/mL^−1 in test [2]; 7.8 μg/mL^−1 in test [3] (setting [8]); 1.95 μg/mL^−1 in test [4]; 3.9 μg/mL^−1 in test [5]; 0.49 μg/mL^−1 in test [6] (setting [9]). Moreover, the MIC in test [7] amounted to 1.95 μg/mL^−1.

Consider `O=C(NNc1ccc(F)cc1)c1cnccn1` [Compound 9d], for which the MIC in test [1] (setting [10]) is 0.24 µg/mL (≈ 1.03 µM); in test [2] (setting [11]), 0.98 µg/mL (≈ 4.22 µM); in test [3] (setting [12]), 0.98 µg/mL (≈ 4.22 µM); in test [4] (setting [11]), 7.8 µg/mL (≈ 33.6 µM); in test [5] (setting [11]), 7.8 µg/mL (≈ 33.6 µM); in test [6] (setting [13]) it was 1.98 µg/mL (≈ 8.53 µM). The MIC in test [7] (setting [11]) was found to be 1.95 µg/mL (≈ 8.4 µM).

With `COc1ccc(NNC(=O)c2ccc(F)cc2F)cc1` [Compound 1f], the MIC was determined as 0.98 µg/mL (≈ 3.52 µM) in test [1] (setting [10]); 1.95 µg/mL (≈ 7.01 µM) in test [2] (setting [11]); 1.95 µg/mL (≈ 7.01 µM) in test [3] (setting [12]); 1.95 µg/mL (≈ 7.01 µM) in test [4] (setting [11]); 1.95 µg/mL (≈ 7.01 µM) in test [5] (setting [11]); 1.95 µg/mL (≈ 7.01 µM) in test [6] (setting [13]). The MIC in test [7] (setting [11]) was found to be 1.95 µg/mL (≈ 7.01 µM).
